Assay results taken from publication PMC11605291 (Frontiers in Pharmacology, 2024).

Assay: Metabolite profiling and identification in plasma, urine and feces (LC/RAM/MS)
Type: in vivo, human
Set-up: key to Plasma %AUC (percentage of total plasma radioactivity) / Urine %Dose / Feces %Dose: +: No radioactive peaks were detected, but mass spectrometry peaks were detected; ND: not detectable
Settings: for Urine %Dose: pooled 0–72 h urine, total in urine 37.15%
Description: The plasma samples from six subjects were pooled individually according to the AUC method to obtain 6 plasma samples of 0–72 h ([Hop et al., 1998]). A portion of the proportionally mixed plasma sample was taken and added to a certain volume of acetonitrile (3×, v/v) for extraction, vortexed for 1 min, shaken for 10 min and then stored in a refrigerator at 4°C for 30 min, the mixture was removed and vortexed for 2 min and then centrifuged for 10 min at 10,000×g and 4°C. The residue from the extraction was firstly ultrasonically suspended using 1 mL of ultrapure water and then extracted using methanol (2×, v/v) and repeated twice. The organic solvent extracts were combined, blown dry with nitrogen and reconstituted with acetonitrile: ultrapure water (1:1), the reconstituted solution was centrifuged at 4°C and 10,000×g for 10 min, and the supernatant was used for radio-metabolite profiling.
The radioactivity in the organic solvent extract and the reconstitution solution was determined by LSC. The solid residue after extraction was dissolved by heating with 1N KOH solution and added to the scintillation solution to determine its radioactivity. All the final data were used to examine the recovery of radioactivity during plasma extraction.
The urine samples from the six subjects were mixed in the same volume percentage to obtain six 0–72 h urine samples. A portion of the proportionally mixed urine sample was centrifuged for 10 min at approximately 10,000×g and 4°C. Two samples were taken before and after centrifugation, and the radioactivity of the samples was determined by LSC, and the data obtained were used to calculate the recovery of radioactivity during the centrifugation process. A portion of the supernatant after centrifugation was used directly for radio-metabolite profiling.
The fecal samples from the six subjects were mixed with the same weight percentage to obtain 6 fecal homogenate samples of 0–168 h. A portion of the proportionally mixed fecal homogenate samples was taken and extracted by adding a volume of acetonitrile (3×, v/v), vortexed for 5 min at room temperature, sonicated for 5 min and then centrifuged for 10 min at 10,000 × g and 4°C. The residue of the extracted material was firstly sonicated and mixed using about 1 mL of ultrapure water before extracted using methanol (2×, v/v). The process was repeated twice and the organic extracts were combined, blown dry using nitrogen and then reconstituted with dimethyl sulfoxide: acetonitrile: ultrapure water (3:2:5), the reconstituted solution was centrifuged at 10,000×g at 4°C for 10 min and the supernatant was used for radio-metabolite profiling. […] LSC was used to determine the intensity of radioactivity contained in the organic solvent extract and in the reconstituted solution. The solid residue after extraction is fully combusted by an oxidative combustor, and the [^14C]carbon dioxide produced by combustion of the sample is captured with a scintillation solution to determine its radioactivity intensity. All final data were used to examine the extraction and recovery of radioactivity from fecal homogenate samples.
A high performance liquid chromatograph coupled with an online isotope detector and mass spectrometry (LC/RAM/MS) was used for the identification of radioactive metabolite profiles. The HPLC method consisted of an HPLC system (Shimadzu UFLC-20A-Lite), a chromatographic column (ACE Excel 3 C18, 150 × 4.6 mm id), mobile phase A (0.4% aqueous formic acid, pH = 3.2 adjusted with ammonia) and mobile phase B (acetonitrile) at a flow rate of 0.7 mL/min. The gradient was 0% B for the 0–5 min, 20% B from 15 min to 30 min, 22% B from 32 to 40 min, and 70%–100% B from 60 to 72 min. The column temperature was 28°C. […]

SMILES: C[C@H](Nc1ncnc(N)c1C#N)c1cc2ncc(Cl)n2nc1-c1ccccc1 [Amdizalisib]
- F: %Dose in feces (Figure 4): 1.21%
- P: %AUC in plasma (Figure 4): 51.45%
- U: %Dose in urine (Figure 4): +
- Plasma %AUC (percentage of total plasma radioactivity) (AUC-pooled 0–72 h plasma, mean of 6 subjects): 51.45 %AUC
- Urine %Dose (mean of 6 subjects): +
- Urine %Dose (mean of 6 subjects, listed as parent drug): detected only by mass spectrometry
- Feces %Dose (pooled 0–168 h feces, mean of 6 subjects, total in feces 62.08%): 1.21 %Dose
- %AUC in AUC-pooled plasma (subject 01001): 57.45 %AUC
- %Dose in pooled feces (subject 01001): 0.77 %Dose
- %AUC in AUC-pooled plasma (subject 01002): 65.57 %AUC
- %Dose in pooled feces (subject 01002): 0.25 %Dose
- %AUC in AUC-pooled plasma (subject 01003): 56.65 %AUC
- %Dose in pooled feces (subject 01003): 1.93 %Dose
- %AUC in AUC-pooled plasma (subject 01004): 59.14 %AUC
- %Dose in pooled feces (subject 01004): 1.52 %Dose
- %AUC in AUC-pooled plasma (subject 01005): 54.59 %AUC
- %Dose in pooled feces (subject 01005): 2.32 %Dose
- %AUC in AUC-pooled plasma (subject 01006): 15.32 %AUC
- %Dose in pooled feces (subject 01006): 0.48 %Dose
